# Results reported in US20080009418A1, “Selective Inhibitors” (Alchemia LTD., priority 2004, published 2008).
# What was measured:
# Human δ-opioid (DOP) = target: T1, Human δ-opioid (DOP) (Homo sapiens, UniProt P41143); experiment: Radioligand binding, human δ-opioid (DOP) membranes, FlashPlate, [3H]-Bremazocine; conditions: compound at 10 μM; [3H]-Bremazocine
# T1 construct: purchased Perkin Elmer Biosignal
# Summary of the method: (§1)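 Cloned human receptor membranes were coated onto FlashPlate wells and incubated with radioligand and compound (added from a 0.5 mM DMSO daughter plate) for 1 hour at room temperature in the dark. Scintillation counting gave percent inhibition, with DMSO defining total and reference ligand defining non-specific binding.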
# Human κ-Opioid (KOP) = target: T2, Human κ-Opioid (KOP) (Homo sapiens, UniProt P41145); experiment: Radioligand binding, human κ-opioid (KOP) membranes, filtration, [3H]-Diprenorphine; conditions: compound at 10 μM, [3H]-Diprenorphine
# T2 construct: purchased Perkin Elmer Biosignal
# T2 sequence (P41145 whole entry): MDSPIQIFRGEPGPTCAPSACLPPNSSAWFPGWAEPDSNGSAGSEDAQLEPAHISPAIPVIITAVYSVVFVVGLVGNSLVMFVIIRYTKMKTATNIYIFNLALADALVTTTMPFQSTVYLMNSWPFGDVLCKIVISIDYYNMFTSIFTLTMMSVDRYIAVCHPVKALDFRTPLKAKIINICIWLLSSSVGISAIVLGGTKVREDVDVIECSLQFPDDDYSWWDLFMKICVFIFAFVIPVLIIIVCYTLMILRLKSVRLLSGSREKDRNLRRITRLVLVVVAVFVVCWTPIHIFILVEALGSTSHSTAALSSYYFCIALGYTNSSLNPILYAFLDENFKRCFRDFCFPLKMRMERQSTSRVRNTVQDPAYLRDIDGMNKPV
# Summary of the method: (§2)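 Percent inhibition of radioligand binding measured on recombinant human membranes: NK1 with [125I]-Substance P, KOP with [3H]-Diprenorphine. Incubation 1 h at room temperature, then harvest onto 0.3% PEI-soaked filters, cold Tris-HCl pH 7.4 washes and scintillation counting; non-specific binding from reference ligand wells.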
# Human Melanocortin (MC3) = target: T3, Human Melanocortin (MC3) (Homo sapiens, UniProt P41968); experiment: Radioligand binding, human melanocortin MC3 membranes, FlashPlate, [125I]-NDP-αMSH; conditions: compound at 10 μM, [125I]-NDP-αMSH
# T3 construct: purchased Perkin Elmer Biosignal
# T3 sequence (P41968 whole entry): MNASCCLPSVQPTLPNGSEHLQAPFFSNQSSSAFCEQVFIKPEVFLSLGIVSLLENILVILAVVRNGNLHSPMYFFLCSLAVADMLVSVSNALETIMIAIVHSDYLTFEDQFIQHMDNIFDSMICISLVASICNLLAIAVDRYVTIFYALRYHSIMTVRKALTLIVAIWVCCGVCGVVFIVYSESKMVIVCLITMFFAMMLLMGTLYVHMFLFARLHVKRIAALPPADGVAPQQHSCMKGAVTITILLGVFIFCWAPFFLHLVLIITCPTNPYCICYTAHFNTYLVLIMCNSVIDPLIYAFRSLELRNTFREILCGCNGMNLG
# Summary of the method: as §1
# Human Melanocortin (MC4) = target: T4, Human Melanocortin (MC4) (Homo sapiens, UniProt P32245); experiment: Radioligand binding, human melanocortin MC4 membranes, FlashPlate, [125I]-NDP-αMSH; conditions: compound at 10 μM, [125I]-NDP-αMSH
# T4 construct: purchased Perkin Elmer Biosignal
# T4 sequence (P32245 whole entry): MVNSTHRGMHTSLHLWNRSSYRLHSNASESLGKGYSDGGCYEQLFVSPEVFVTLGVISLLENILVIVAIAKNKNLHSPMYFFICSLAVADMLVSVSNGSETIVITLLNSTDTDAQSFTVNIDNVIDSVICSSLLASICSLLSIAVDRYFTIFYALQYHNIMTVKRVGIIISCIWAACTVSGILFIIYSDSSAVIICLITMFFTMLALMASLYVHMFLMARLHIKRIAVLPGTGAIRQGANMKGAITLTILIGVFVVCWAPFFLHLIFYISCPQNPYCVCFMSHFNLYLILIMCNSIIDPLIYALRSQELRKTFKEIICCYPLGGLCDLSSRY
# Summary of the method: as §1
# Human melanocortin (MC5) = target: T5, Human melanocortin (MC5) (Homo sapiens, UniProt P33032); experiment: Radioligand binding, human melanocortin MC5 membranes, FlashPlate, [125I]-NDP-αMSH; conditions: compound at 10 μM, [125I]-NDP-αMSH
# T5 construct: purchased Perkin Elmer Biosignal
# T5 sequence (P33032 whole entry): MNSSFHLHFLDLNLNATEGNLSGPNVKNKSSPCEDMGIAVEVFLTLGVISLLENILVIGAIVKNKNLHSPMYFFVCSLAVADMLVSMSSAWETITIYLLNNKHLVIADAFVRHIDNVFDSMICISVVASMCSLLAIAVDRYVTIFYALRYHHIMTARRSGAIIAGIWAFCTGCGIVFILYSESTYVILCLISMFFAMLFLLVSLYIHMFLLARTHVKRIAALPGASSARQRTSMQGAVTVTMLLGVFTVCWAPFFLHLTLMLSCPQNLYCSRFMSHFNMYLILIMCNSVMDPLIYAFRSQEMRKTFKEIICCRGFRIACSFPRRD
# Summary of the method: as §1
# [1] = target: T6, Human melanin-concentrating hormone (MCH1) (Homo sapiens, UniProt Q99705); experiment: Radioligand binding, human melanin-concentrating hormone MCH1 membranes, FlashPlate, [125I]-S36057; conditions: compound at 10 μM, [125I]-S36057
# T6 construct: purchased Perkin Elmer Biosignal
# T6 sequence (Q99705 whole entry): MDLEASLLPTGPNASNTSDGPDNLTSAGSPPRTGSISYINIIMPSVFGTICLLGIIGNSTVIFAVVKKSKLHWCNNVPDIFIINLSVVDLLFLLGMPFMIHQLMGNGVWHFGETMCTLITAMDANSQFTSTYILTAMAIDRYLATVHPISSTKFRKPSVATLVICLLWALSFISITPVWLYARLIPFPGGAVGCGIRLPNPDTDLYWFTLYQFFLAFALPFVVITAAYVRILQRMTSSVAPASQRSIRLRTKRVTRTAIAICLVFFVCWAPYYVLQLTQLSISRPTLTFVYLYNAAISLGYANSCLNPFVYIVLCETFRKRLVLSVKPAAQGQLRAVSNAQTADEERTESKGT
# Summary of the method: as §1
# Human μ-opioid (MOP) = target: T7, Human μ-opioid (MOP) (Homo sapiens, UniProt P35372); experiment: Radioligand binding, human μ-opioid (MOP) membranes, FlashPlate, [3H]-Naloxone; conditions: compound at 10 μM; [3H]-Naloxone
# T7 construct: purchased Perkin Elmer Biosignal
# T7 sequence (P35372 whole entry): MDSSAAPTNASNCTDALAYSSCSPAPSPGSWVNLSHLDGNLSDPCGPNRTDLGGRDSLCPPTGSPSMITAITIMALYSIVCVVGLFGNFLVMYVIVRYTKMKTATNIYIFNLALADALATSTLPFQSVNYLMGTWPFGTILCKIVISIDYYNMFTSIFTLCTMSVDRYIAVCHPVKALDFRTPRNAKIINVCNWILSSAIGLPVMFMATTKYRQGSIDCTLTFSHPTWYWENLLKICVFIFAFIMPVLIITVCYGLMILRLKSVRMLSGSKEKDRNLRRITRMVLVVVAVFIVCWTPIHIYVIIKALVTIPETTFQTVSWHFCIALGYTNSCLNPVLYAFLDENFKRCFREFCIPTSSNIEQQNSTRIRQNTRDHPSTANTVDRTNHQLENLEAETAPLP
# Summary of the method: as §1
# Human neurokinin (NK1) = target: T8, Human neurokinin (NK1) (Homo sapiens, UniProt P25103); experiment: Radioligand binding, human neurokinin NK1 membranes, filtration, [125I]-Substance P; conditions: compound at 10 μM; [125I]-Substance P
# T8 construct: purchased Perkin Elmer Biosignal
# T8 sequence (P25103 whole entry): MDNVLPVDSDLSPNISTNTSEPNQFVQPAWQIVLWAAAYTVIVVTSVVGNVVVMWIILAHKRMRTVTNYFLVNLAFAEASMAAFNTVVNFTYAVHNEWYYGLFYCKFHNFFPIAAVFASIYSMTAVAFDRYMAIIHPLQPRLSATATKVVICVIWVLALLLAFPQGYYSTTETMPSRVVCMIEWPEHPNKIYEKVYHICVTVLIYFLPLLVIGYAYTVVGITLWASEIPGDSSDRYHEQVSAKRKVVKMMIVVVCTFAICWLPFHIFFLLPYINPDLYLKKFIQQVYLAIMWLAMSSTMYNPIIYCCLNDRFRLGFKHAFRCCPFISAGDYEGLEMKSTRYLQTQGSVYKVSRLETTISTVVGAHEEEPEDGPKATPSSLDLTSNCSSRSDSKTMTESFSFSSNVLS
# Summary of the method: as §2
# [2] = target: T9, Human neuropeptide Y (NPY-Y1) (Homo sapiens, UniProt P25929); experiment: Radioligand binding, human neuropeptide Y NPY-Y1 membranes, FlashPlate, [125I]-PYY; conditions: compound at 10 μM; [125I]-PYY
# T9 construct: purchased Perkin Elmer Biosignal
# T9 sequence (P25929 1-384): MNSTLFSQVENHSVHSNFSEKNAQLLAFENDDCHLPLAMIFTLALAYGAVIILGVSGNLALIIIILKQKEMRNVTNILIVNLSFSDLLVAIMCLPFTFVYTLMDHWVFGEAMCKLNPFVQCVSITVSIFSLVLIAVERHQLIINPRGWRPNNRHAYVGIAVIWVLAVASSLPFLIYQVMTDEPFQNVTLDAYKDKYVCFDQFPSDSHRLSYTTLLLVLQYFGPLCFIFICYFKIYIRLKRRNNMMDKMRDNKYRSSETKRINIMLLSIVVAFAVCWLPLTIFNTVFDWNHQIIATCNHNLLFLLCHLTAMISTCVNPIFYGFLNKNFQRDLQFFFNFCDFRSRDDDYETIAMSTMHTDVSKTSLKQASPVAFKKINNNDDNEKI
# Summary of the method: as §1
# Human opioid (ORL1) = target: T10, Human opioid (ORL1) (Homo sapiens, UniProt P41146); experiment: Radioligand binding, human opioid ORL1 membranes, FlashPlate, [125I]-Nociceptin; conditions: compound at 10 μM; [125I]-Nociceptin
# T10 construct: purchased Perkin Elmer Biosignal
# T10 sequence (P41146 whole entry): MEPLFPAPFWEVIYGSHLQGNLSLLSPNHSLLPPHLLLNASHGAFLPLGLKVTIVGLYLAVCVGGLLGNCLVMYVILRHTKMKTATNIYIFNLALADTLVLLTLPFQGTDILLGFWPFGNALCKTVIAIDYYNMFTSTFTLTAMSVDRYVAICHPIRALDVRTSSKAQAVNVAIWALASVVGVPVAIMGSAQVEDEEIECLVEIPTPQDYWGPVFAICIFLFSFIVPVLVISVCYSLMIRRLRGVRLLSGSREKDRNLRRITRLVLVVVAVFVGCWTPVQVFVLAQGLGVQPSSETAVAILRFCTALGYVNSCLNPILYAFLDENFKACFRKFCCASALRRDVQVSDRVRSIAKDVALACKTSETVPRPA
# Summary of the method: as §1
# Mouse urotensin (mUR2) = target: T11, Mouse urotensin (mUR2) (Mus musculus, UniProt Q8VIH9); experiment: Radioligand binding, mouse urotensin mUR2 membranes, FlashPlate, [125I]-Urotensin II; conditions: compound at 10 μM; [125I]-Urotensin II
# T11 construct: purchased Perkin Elmer Biosignal
# T11 sequence (Q8VIH9 1-385): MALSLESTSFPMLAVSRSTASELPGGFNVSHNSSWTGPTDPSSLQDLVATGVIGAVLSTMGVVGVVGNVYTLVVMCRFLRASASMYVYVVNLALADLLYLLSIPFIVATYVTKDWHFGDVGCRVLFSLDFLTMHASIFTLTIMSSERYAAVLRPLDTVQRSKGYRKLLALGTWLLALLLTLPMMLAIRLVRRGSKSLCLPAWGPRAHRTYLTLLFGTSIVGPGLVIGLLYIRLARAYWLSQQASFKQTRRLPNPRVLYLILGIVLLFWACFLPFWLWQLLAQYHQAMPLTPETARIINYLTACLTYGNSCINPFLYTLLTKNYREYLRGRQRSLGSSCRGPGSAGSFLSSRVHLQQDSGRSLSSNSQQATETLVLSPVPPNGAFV
# Summary of the method: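 Cloned mouse urotensin (mUR2) receptor membranes from Perkin Elmer Biosignal were immobilized in FlashPlate microplates using a proprietary coating. Each well got 19.5 μl buffer, then 0.5 μl of DMSO, reference ligand, or compound. Adding 5 μl of [125I]-Urotensin II, diluted to 5× final concentration in binding buffer, started binding. Plates were sealed with TopSeal-A and incubated 1 hour at room temperature in the dark. Wells were counted for 30 seconds each on a TopCount after a 60-second delay, and percentage inhibition was calculated.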
# T1 sequence (P41143 whole entry): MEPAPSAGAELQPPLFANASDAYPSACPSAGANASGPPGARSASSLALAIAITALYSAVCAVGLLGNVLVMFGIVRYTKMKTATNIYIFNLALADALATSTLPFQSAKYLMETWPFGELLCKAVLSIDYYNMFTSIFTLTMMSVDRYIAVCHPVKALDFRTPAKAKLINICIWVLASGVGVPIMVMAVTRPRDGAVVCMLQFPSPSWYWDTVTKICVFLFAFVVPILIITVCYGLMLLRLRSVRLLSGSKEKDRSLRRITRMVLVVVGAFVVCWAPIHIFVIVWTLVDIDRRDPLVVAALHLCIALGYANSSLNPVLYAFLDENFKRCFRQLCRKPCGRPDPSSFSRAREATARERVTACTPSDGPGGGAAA
SMILES,"A1 radioligand binding, percentage inhibition (Human δ-opioid (DOP))","A2 radioligand binding, percentage inhibition (Human κ-Opioid (KOP))","A3 radioligand binding, percentage inhibition (Human Melanocortin (MC3))","A4 radioligand binding, percentage inhibition (Human Melanocortin (MC4))","A5 radioligand binding, percentage inhibition (Human melanocortin (MC5))","A6 radioligand binding, percentage inhibition [1]","A7 radioligand binding, percentage inhibition (Human μ-opioid (MOP))","A8 radioligand binding, percentage inhibition (Human neurokinin (NK1))","A9 radioligand binding, percentage inhibition [2]","A10 radioligand binding, percentage inhibition (Human opioid (ORL1))","A11 radioligand binding, percentage inhibition (Mouse urotensin (mUR2))",further results
[N-]=[N+]=N[C@H]1C(OCCNC(=N)N)O[C@H](COCc2ccc3ccccc3c2)[C@@H](O)[C@@H]1OCc1ccccc1 (stereo partly drawn) [compound 126],− (“−” indicates less than 50% inhibition at 10 μM),− (“−” indicates less than 50% inhibition at 10 μM),− (“−” indicates less than 50% inhibition at 10 μM),+ (“+” indicates greater than 50% inhibition at 10 μM),+ (“+” indicates greater than 50% inhibition at 10 μM),+ (“+” indicates greater than 50% inhibition at 10 μM),− (“−” indicates less than 50% inhibition at 10 μM),+ (“+” indicates greater than 50% inhibition at 10 μM),− (“−” indicates less than 50% inhibition at 10 μM),− (“−” indicates less than 50% inhibition at 10 μM),− (“−” indicates less than 50% inhibition at 10 μM),
N=C(N)NCCC(=O)N[C@H]1C(OCc2ccc(Cl)cc2)O[C@H](COCc2ccc3ccccc3c2)[C@@H](O)[C@@H]1OCc1ccc2ccccc2c1 (stereo partly drawn) [compound 529],,,,,,,,,,,,"A1: inhibition of radioligand binding, human δ-opioid (DOP) (Human δ-opioid (DOP)): − (“−” indicates less than 50% inhibition at 10 μM); A2: inhibition of radioligand binding, human κ-opioid (KOP) (Human κ-Opioid (KOP); 10 µM): + (“+” indicates greater than 50% inhibition at 10 μM); A3: inhibition of radioligand binding, human melanocortin (MC3) (Human Melanocortin (MC3); 10 µM): + (“+” indicates greater than 50% inhibition at 10 μM); A4: inhibition of radioligand binding, human melanocortin (MC4) (Human Melanocortin (MC4); 10 µM): + (“+” indicates greater than 50% inhibition at 10 μM); A5: inhibition of radioligand binding, human melanocortin (MC5) (Human melanocortin (MC5); 10 µM): + (“+” indicates greater than 50% inhibition at 10 μM); A6: inhibition of radioligand binding, human melanin-concentrating hormone (MCH1) ([1]; 10 µM): + (“+” indicates greater than 50% inhibition at 10 μM); A7: inhibition of radioligand binding, human μ-opioid (MOP) (Human μ-opioid (MOP)): − (“−” indicates less than 50% inhibition at 10 μM); A8: inhibition of radioligand binding, human neurokinin (NK1) (Human neurokinin (NK1)): + (“+” indicates greater than 50% inhibition at 10 μM); A9: inhibition of radioligand binding, human neuropeptide Y (NPY-Y1) [2]: − (“−” indicates less than 50% inhibition at 10 μM); A10: inhibition of radioligand binding, human opioid (ORL1) (Human opioid (ORL1)): − (“−” indicates less than 50% inhibition at 10 μM); A11: inhibition of radioligand binding, mouse urotensin (mUR2) (Mouse urotensin (mUR2)): − (“−” indicates less than 50% inhibition at 10 μM)"
COCC1OC(OCc2ccccc2)C(NC(=O)CCCN)C(OCc2ccc(-c3ccccc3)cc2)C1O (stereo not drawn) [compound 186],− (“−” indicates less than 50% inhibition at 10 μM),− (“−” indicates less than 50% inhibition at 10 μM),− (“−” indicates less than 50% inhibition at 10 μM),− (“−” indicates less than 50% inhibition at 10 μM),+ (“+” indicates greater than 50% inhibition at 10 μM),− (“−” indicates less than 50% inhibition at 10 μM),− (“−” indicates less than 50% inhibition at 10 μM),+ (“+” indicates greater than 50% inhibition at 10 μM),− (“−” indicates less than 50% inhibition at 10 μM),− (“−” indicates less than 50% inhibition at 10 μM),− (“−” indicates less than 50% inhibition at 10 μM),
